Here are results for four compounds from paper PMC9961271, “Inhibitory Effects of a Novel μ-Opioid Receptor Nonpeptide Antagonist, UD-030, on Morphine-Induced Conditioned Place Preference” (International Journal of Molecular Sciences, 2023).

Counter-ions that a name gives are not always drawn. Some results are limits rather than exact numbers.

The target of data set [1] is T1, human MOP (Homo sapiens, UniProt P35372). The data set can be described thus: Competitive radioligand binding assay, hMOP/CHO membranes.
For data set [2], the target named is T2, human DOP (Homo sapiens, UniProt P41143). The data set can be described thus: Competitive radioligand binding assay, hDOP/CHO membranes.
Data set [3] concerns the target T3, human KOP (Homo sapiens, UniProt P41145). The data set can be described thus: Competitive radioligand binding assay, hKOP/CHO membranes.
Data set [4] deals with T4, human NOP (Homo sapiens, UniProt P41146). The data set can be described thus: Competitive radioligand binding assay, hNOP/CHO membranes.
The target of data set [5] is T1, human MOP. The data set can be described thus: [35S]-GTPγS binding assay, hMOP/CHO membranes. The class given is biochemical.
Data set [6] has as its target T2, human DOP. The data set can be described thus: [35S]-GTPγS binding assay, hDOP/CHO membranes. The class given is biochemical. For orientation: GTPγS is a poorly hydrolysed GTP analogue; its binding reports G protein activation.
The target in data set [7] is T3, human KOP. The data set can be described thus: [35S]-GTPγS binding assay, hKOP/CHO membranes. Type of data set: biochemical.
Data set [8] addresses T4, human NOP. The data set can be described thus: [35S]-GTPγS binding assay, hNOP/CHO membranes. The class given is biochemical.
Data set [9] relates to C57BL/6J mice. The data set can be described thus: Acquisition of morphine-induced conditioned place preference. Type of data set: in vivo, male C57BL/6J mice. To be noted: for time spent in the drug-paired compartment, postconditioning / time spent in the drug-paired compartment, preconditioning: n = 8; for morphine-induced CPP score compared with the vehicle-pretreated group: Dunnett's test. On the procedure:
(§1) For the pharmacokinetic and pharmacological studies, morphine hydrochloride (Takeda Pharma, Osaka, Japan) was dissolved and diluted in saline and administered intraperitoneally (i.p.) in a volume of 10 mL/kg body weight. […] All experiments were conducted with a dose of morphine (10 mg/kg) that is sufficient to elicit CPP.
(§2) Male Crl:CD1 (ICR) mice (Japan CLEA, Tokyo, Japan) were used at 5 weeks of age for the pharmacokinetic analysis. Male C57BL/6J mice (Japan CLEA) were used at 7 weeks of age for the behavioral analyses. The mice were housed 4–6 per cage in an environment at 23 °C ± 1 °C and 50% ± 5% humidity with free access to food and water under a 12 h/12 h light/dark cycle. All experiments were performed with approval from the Institutional Animal Care and Use Committee at the Tokyo Metropolitan Institute of Medical Science.
(§3) The CPP test was performed using a two-compartment Plexiglas chamber. […] For the preconditioning and postconditioning phases, a T-style division with double 60 mm × 60 mm openings allowed the mice to access both compartments. During the conditioning phases, the openings were eliminated to restrict the mice to one of the compartments. The CPP apparatus was placed in a sound-attenuated, light-controlled box. On day 1 (preconditioning: habituation) and day 2 (preconditioning: pretest), the mice freely explored the two compartments for 900 s, and the time spent in each compartment during the exploratory period and locomotor activity were measured using an infrared detector (Neuroscience, Osaka, Japan). We selected a counterbalanced protocol to nullify each mouse’s initial preference as discussed previously. […] Conditioning was conducted once daily for 4 consecutive days (days 3–6). The mice were injected with morphine (10.0 mg/kg, i.p.) or saline and immediately confined to the black or white compartment for 60 min on day 3. On day 4, the mice were alternately injected with saline or drug and immediately confined to the opposite compartment for 60 min. On days 5 and 6, the same conditioning as on days 3 and 4 was repeated. The assignment of the mice to the conditioned compartment was performed randomly and counterbalanced across subjects. During the postconditioning phase on day 7, the time spent in each compartment was measured for 900 s. The CPP score was designated as the time spent in the drug-paired compartment on day 7 minus the time spent in the same compartment in the preconditioning phase on day 2.
(§4) The data were analyzed using two-way repeated-measures ANOVA followed by Sidak’s multiple-comparison post hoc test, one-way ANOVA followed by Dunnett’s multiple-comparison post hoc test, or Student’s t-test using GraphPad Prism software. Values of p < 0.05 were considered statistically significant.

For data set [10], the system named is C57BL/6J mice. The data set can be described thus: Expression of morphine-induced conditioned place preference. The class given is in vivo, male C57BL/6J mice. To be noted: for time spent in the morphine-paired compartment, preconditioning / time spent in the morphine-paired compartment, postconditioning: n = 8; for morphine-induced CPP score compared with the vehicle-treated control group: 10 mg/kg p.o. before the postconditioning phase, Dunnett's test, UD-030 p = 0.038, NTX p = 0.042; for sedative effects (number of transitions between compartments): 10 mg/kg p.o., postconditioning phase. How it is done: as §1, §2, §3, §4

The nature of data set [11]: Pharmacokinetics after a single oral administration (plasma, LC-MS/MS). To be noted: male, Crl:CD1 (ICR), mouse; for concentration at 0.5 h / concentration at 1 h / concentration at 2 h / concentration at 4 h / concentration at 8 h / concentration at 24 h: in vivo; for AUC(0-t) / Cmax / Tmax: plasma; for Tmax: mice.
The mark [12] stands for this setting: 3 mg/kg p.o. 60 min before each morphine treatment (10 mg/kg, i.p.).
The mark [13] stands for this setting: 10 mg/kg p.o. 60 min before each morphine treatment (10 mg/kg, i.p.).
Where [14] appears, read: 10 mg/kg p.o. before each morphine treatment, UD-030 p < 0.001, NTX p = 0.003.
[15] abbreviates: 10 mg/kg p.o. 60 min before the postconditioning phase.

For orientation: Ki means a dissociation constant, usually derived from enzyme kinetics or from competition with a known ligand. One may read the EC50 as the concentration giving half of the maximal effect. Read a low EC50 as an effect from little substance. A word on the IC50: it is the point on the concentration scale where inhibition reaches its midpoint. A lower IC50 goes with greater potency. What is called AUC(0-t) is the area under the concentration-time curve up to a stated or last time point. Low readings indicate low exposure, high ones high exposure. As a reminder, the Cmax is the maximum level reached in the sampled fluid or tissue. The Tmax is the time at which the peak concentration occurs.

Turning to `CC[C@]1(c2cc(NS(=O)(=O)C3CC3)ccc2F)[C@@H]2CN(CC3(O)Cc4ccccc4C3)C[C@@H]21` [UD-030], the Ki in data set [1] worked out at 3.1 nM; in data set [2], 1800 nM; in data set [3], 460 nM; in [4] it was 1800 nM. Besides, the EC50 in [5], in [6], in [7] and in [8] was more than 10000 nM in each case. Moreover, the IC50 was determined as 1.7 nM in data set [5], 850 nM in data set [6], 85 nM in data set [7] and 330 nM in data set [8]. Moreover, the maximal inhibitory effect in [5] (against DAMGO), in data set [6] (against DPDPE), in [7] (against U-69593) and in data set [8] (against nociceptin) was more than 95% in each case. The “stimulation of [35S]-GTPγS binding” value in data set [5] (high concentration (10 µM)), in data set [6] (high concentration (10 µM)), in data set [7] (high concentration (10 µM)) and in data set [8] (high concentration (10 µM)) was “did not stimulate” throughout. The “time spent in the drug-paired compartment, postconditioning” value in data set [9] (setting [12]) was found to be 470.6 ± 16.5 s; in data set [9] (setting [13]), 392.8 ± 42.3 s. For the same compound, the results for the “time spent in the drug-paired compartment, preconditioning” value in [9] (setting [12]) and in data set [9] (setting [13]) were 445.2 ± 18.9 s and 434.9 ± 30.5 s, respectively. Also, the “morphine-induced CPP score compared with the vehicle-pretreated group” value in [9] (3 mg/kg p.o. before each morphine treatment, p = 0.023) is on record as “significantly lower”; in data set [9] (setting [14]) it was “significantly lower”. The “time spent in the morphine-paired compartment, preconditioning” value in data set [10] (3 mg/kg p.o. 60 min before the postconditioning phase) turned out to be 466.8 ± 20.7 s; in [10] (setting [15]) it was 461.3 ± 20.0 s. Further, the “time spent in the morphine-paired compartment, postconditioning” value came out at 536.5 ± 24.8 s in [10] (3 mg/kg p.o. 60 min before the postconditioning phase, p = 0.012 vs pre) and 492.4 ± 32.8 s in data set [10] (setting [15]). Besides, the “morphine-induced CPP score compared with the vehicle-treated control group” value in data set [10] was “significantly decreased”. In addition, the “sedative effects (number of transitions between compartments)” value in data set [10] is given as “did not exert sedative effects”. Also, in [10] (high-dose (10 mg/kg, p.o.)), the “behavioral abnormalities during the session” value was “No other notable behavioral abnormalities”. The concentration at 0.5 h in data set [11] (0.5 mg/kg) was determined as 1.09 ± 0.4 ng/mL; in data set [11] (1 mg/kg), 4.76 ± 1.9 ng/mL; in data set [11] (2 mg/kg), 11.8 ± 5.4 ng/mL; in data set [11] (4 mg/kg), 27.7 ± 24 ng/mL. Also, the concentration at 1 h in data set [11] (0.5 mg/kg) was 2.86 ± 1.6 ng/mL; in data set [11] (1 mg/kg), 6.98 ± 1.7 ng/mL; in [11] (2 mg/kg) it was 25.5 ± 2.2 ng/mL; in [11] (4 mg/kg), 119 ± 35 ng/mL. The concentration at 2 h in data set [11] (0.5 mg/kg) was 2.96 ± 0.3 ng/mL; in data set [11] (1 mg/kg), 14.9 ± 0.9 ng/mL; in data set [11] (2 mg/kg), 36.1 ± 8.3 ng/mL; in data set [11] (4 mg/kg) it was 72.7 ± 18 ng/mL. The concentration at 4 h in [11] (0.5 mg/kg) is 4.61 ± 1.9 ng/mL; in data set [11] (1 mg/kg) it was 11.5 ± 2.9 ng/mL; in data set [11] (2 mg/kg), 26.7 ± 3.3 ng/mL; in [11] (4 mg/kg), 103 ± 15 ng/mL. In addition, the concentration at 8 h in [11] (0.5 mg/kg) was determined as 4.95 ± 0.9 ng/mL; in data set [11] (1 mg/kg), 10.9 ± 2.1 ng/mL; in [11] (2 mg/kg) it was 18.8 ± 9.2 ng/mL; in data set [11] (4 mg/kg), 69.4 ± 10 ng/mL. Also, the concentration at 24 h was determined as 0.231 ng/mL in data set [11] (0.5 mg/kg), 0.358 ng/mL in [11] (1 mg/kg), 0.35 ng/mL in [11] (2 mg/kg) and 0.395 ± 0.1 ng/mL in [11] (4 mg/kg). In addition, the AUC(0-t) in data set [11] (0.5 mg/kg) was found to be 72.3 ng·h/mL; in data set [11] (1 mg/kg), 176 ng·h/mL; in [11] (2 mg/kg) it was 350 ng·h/mL; in [11] (4 mg/kg) it was 1220 ng·h/mL. The Cmax is 4.95 ng/mL in data set [11] (0.5 mg/kg), 14.9 ng/mL in [11] (1 mg/kg), 36.1 ng/mL in data set [11] (2 mg/kg) and 119 ng/mL in data set [11] (4 mg/kg). In addition, the Tmax in data set [11] (0.5 mg/kg, Tmax, 0.5 mg/kg p.o.) was 8 h; in [11] (1 mg/kg, Tmax, 1 mg/kg p.o.), 2 h; in data set [11] (2 mg/kg, Tmax, 2 mg/kg p.o.), 2 h; in [11] (4 mg/kg, Tmax, 4 mg/kg p.o.) it was 1 h; in data set [11] (4 mg/kg, time to reach the maximum plasma concentration (Tmax), over the doses 0.5, 1, 2 and 4 mg/kg p.o.) it was 1 to 8 h.

Take `O=C1CC[C@@]2(O)[C@H]3Cc4ccc(O)c5c4[C@@]2(CCN3CC2CC2)[C@H]1O5` [NTX, naltrexone, reference compound]: in [9] (setting [13]), the “time spent in the drug-paired compartment, postconditioning” value is given as 436.5 ± 49.7 s and the “time spent in the drug-paired compartment, preconditioning” value is 437.0 ± 38.1 s. Moreover, the “morphine-induced CPP score compared with the vehicle-pretreated group” value in [9] (setting [14]) was “significantly lower”. Also, in data set [10] (setting [15]), the “time spent in the morphine-paired compartment, postconditioning” value is listed as 474.1 ± 29.9 s and the “time spent in the morphine-paired compartment, preconditioning” value was found to be 441.6 ± 33.0 s. In data set [10], the “morphine-induced CPP score compared with the vehicle-treated control group” value was “significantly decreased” and the “sedative effects (number of transitions between compartments)” value was “did not exert sedative effects”.

Take `C[C@@H](NC(=O)[C@@H](N)Cc1ccc(O)cc1)C(=O)NCC(=O)N(C)[C@@H](Cc1ccccc1)C(=O)NCCO` [DAMGO, reference compound]: the Emax in data set [5] (hMOP/CHO, read-out: maximal effect (agonistic activity)) was more than 95%.

In the case of `CN1CC[C@]23c4c5ccc(O)c4O[C@H]2[C@@H](O)C=C[C@H]3[C@H]1C5` [Morphine, morphine hydrochloride], the “time spent in the drug-paired compartment, preconditioning” value in data set [9] (morphine 10 mg/kg i.p. conditioning, vehicle-pretreated control mice) was determined as 443.1 ± 33.2 s. In data set [9] (morphine 10 mg/kg i.p. conditioning, vehicle-pretreated control mice, p < 0.001 vs pre), the “time spent in the drug-paired compartment, postconditioning” value came to 554.4 ± 31.8 s. In addition, the “time spent in the morphine-paired compartment, preconditioning” value in data set [10] (morphine 10 mg/kg i.p. conditioning, vehicle-treated control mice) is on record as 443.6 ± 34.4 s. Moreover, the “time spent in the morphine-paired compartment, postconditioning” value in [10] (morphine 10 mg/kg i.p. conditioning, vehicle-treated control mice, p < 0.001 vs pre) worked out at 554.4 ± 29.7 s.
